Assay results: PubChem BioAssay AID2060626 (Molecular Pharmacology Branch, DTP, NCI, 2025)

Tested on: 168753-222-R-J1-PDC complex spheroid viability
Assay: Anticancer human tumor 168753-222-R-J1-PDC patient-derived bladder carcinoma cell line growth inhibition [CLK]
Conditions: for IC50: curve of first compound; for viability, T/C: stronger effect = lower value
Source text: A high-throughput screen of multi-cell type tumor spheroids was designed to identify active combinations of […] and targeted small molecules. Complex spheroids include a stromal component modeled by human endothelial cells (HUVEC) and fibroblasts modeled by human mesenchymal stem cells (MSCs). The concentration ranges selected for each drug and investigational agent were based upon clinically achievable concentrations if the clinical Cmax of the agent was known.
Compounds. The drugs and investigational agents: cirtuvivint (SM08502; NSC835563), CC-671 (NSC850746), vemurafenib (NSC761431), tapotoclax (NSC804041), sotorasib (NSC818433), adagrasib (NSC831453), MRTX-1133 (NSC836407), BAY2416964 (NSC825713), copanlisib (NSC816437), inavolisib (NSC800729), abemaciclib (NSC768073), osimertinib (NSC779217), entinostat (NSC756642), eltanexor (KPT-8602, NSC794443), venetoclax (NSC766270), ceralasertib (NSC777638), bortezomib (NSC756655), olaparib (NSC753686), talazoparib (NSC767125), alisertib (NSC759677), peposertib (NSC802822), gemcitabine (NSC613327), 5-fluorouracil (NSC19893), SN-38 (NSC673596), oxaliplatin (NSC266046), paclitaxel (NSC125973), and doxorubicin (NSC123127), were obtained from the National Cancer Institute (NCI) Developmental Therapeutics Program Chemical Repository. The FDA-approved anticancer drug set is available from the Developmental Therapeutics Program at https://dtp.cancer.gov/organization/dscb/obtaining/available plates.htm. […] The stock solutions were prepared in dimethyl sulfoxide (DMSO, Sigma-Aldrich, St. Louis, MO, cat. D2650), except for the platinum complexes which were prepared in saline (Quality Biological, Gaithersburg, MD, cat. 114-055-101), at 800-fold the tested concentration and stored at -70 degrees C prior to their use. All drugs and investigational agents were tested over a range starting from a high concentration at or near the clinical Cmax and decreasing in half-log increments. If the clinical Cmax for an agent had not been determined, the highest concentration tested was 10 microM.
Cell Culture. All cells were maintained in an incubator at 37 degrees C and 5% CO2 with 95% humidity. The PDC lines were cultured according to standard operating procedures established by the NCI PDMR. Briefly, all PDCs were thawed and cultured in Matrigel-coated flasks prepared with a working solution of 1X Ham's F-12 nutrient mix, without supplementation (Invitrogen, Waltham, MA, cat. 11765054), 100 U/mL penicillin-streptomycin (Invitrogen, cat. 15140122), and 2.5% Matrigel (Corning Inc., Corning, NY, cat. 354248) for the first three passages. The 947758-054-R-J2-PDC line was cultured in 6B/Colon 1A media, which includes advanced DMEM/F-12 (Thermo Fisher Scientific, cat. 12634028), 10 mM HEPES (Thermo Fisher Scientific, cat. 15630080), 1X GlutaMAX supplement (Thermo Fisher Scientific, cat. 35050061), 0.1 mg/mL primocin (InvivoGen, cat. ant-pm-2), 10% defined fetal bovine serum, heat inactivated (HyClone Laboratories Inc., cat. SH30070.03HI), 1.25 mM N-Acetyl-L-cysteine (Sigma-Aldrich, cat. A9165), 10 mM nicotinamide (Sigma-Aldrich, cat. N0636), 1X B-27 supplement (Thermo Fisher Scientific, cat. 17504044), 1X N-2 supplement (Thermo Fisher Scientific, cat. 17502048), and 10 microM Y-27632 dihydrochloride (Tocris Bioscience, cat. 1254). The 876862-298-R-J1-PDC was cultured in 6E media, which includes all 6B/Colon 1A media components plus 50% L-WRN conditioned media (ATCC, cat. CRL-3276), 50 ng/mL recombinant human EGF recombinant protein (hEGF; Thermo Fisher Scientific, cat. PHG0311), 10 ng/mL recombinant human fibroblast growth factor 10 (hGFG-10; PeproTech, cat. 100-26), 1 ng/mL recombinant human fibroblast growth factor 2 (hFGF-2; PeproTech, cat. 100-18B), and 1 µM prostaglandin E2 (PGE2; Tocris, cat. 2296). The 227483-062-R1-J1-PDC line was cultured in Panc media, containing all 6E components except hFGF-2, with the addition of 500 nM SB-431542 (Selleckchem, cat. S1067) and 10 nM gastrin (Tocris, cat. 3006). […]
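Further: viability measured after seven days of drug exposure.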
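Wherever viability, T/C is given: luminescence signal used as surrogate for viable cell amount; 100% = DMSO vehicle control wells.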

Compound `NC(=O)C(=Cn1cnc(-c2cc(C(F)(F)F)cc(C(F)(F)F)c2)n1)c1cncnc1` + CN1CCN(c2cc(C(=O)Nc3cc4cc(-c5cnn(C)c5)ccc4cn3)ccn2)CC1 has an IC50 (second compound 0.0316 µM) of 56.2 nM, an IC50 (second compound 0.1 µM) of 13.6 nM and an IC50 (second compound 0.316 µM) of under 9.49 nM. For the same compound, the IC50 (second compound 1 µM) was under 9.49 nM, the IC50 (second compound 3.16 µM) was under 9.49 nM and the IC50 (second compound 10 µM) was under 9.49 nM. It also gave a viability, T/C (second compound 0.0316 µM, first compound 0.00949 µM) of 75.6%, a viability, T/C (second compound 0.0316 µM, first compound 0.03 µM) of 72.3% and a viability, T/C (second compound 0.0316 µM, first compound 0.0949 µM) of 31.5%. The viability, T/C (second compound 0.0316 µM, first compound 0.3 µM) was 22.6%, the viability, T/C (second compound 0.0316 µM, first compound 0.949 µM) was 15% and the viability, T/C (second compound 0.0316 µM, first compound 3 µM) was 12.9%. It also gave a viability, T/C (second compound 0.1 µM, first compound 0.00949 µM) of 61.4%, a viability, T/C (second compound 0.1 µM, first compound 0.03 µM) of 25.2% and a viability, T/C (second compound 0.1 µM, first compound 0.0949 µM) of 10.8%. For the same compound, the viability, T/C (second compound 0.1 µM, first compound 0.3 µM) was 10.9%, the viability, T/C (second compound 0.1 µM, first compound 0.949 µM) was 5.67% and the viability, T/C (second compound 0.1 µM, first compound 3 µM) was 3.14%. For the same compound, the viability, T/C (second compound 0.316 µM, first compound 0.00949 µM) was 6.93%, the viability, T/C (second compound 0.316 µM, first compound 0.03 µM) was 4.81% and the viability, T/C (second compound 0.316 µM, first compound 0.0949 µM) was 0.76%. It also gave a viability, T/C (second compound 0.316 µM, first compound 0.3 µM) of 0.08%, a viability, T/C (second compound 0.316 µM, first compound 0.949 µM) of 0.11% and a viability, T/C (second compound 0.316 µM, first compound 3 µM) of 0.75%. For the same compound, the viability, T/C (second compound 1 µM, first compound 0.00949 µM) was 0.09%, the viability, T/C (second compound 1 µM, first compound 0.03 µM) was 0.15% and the viability, T/C (second compound 1 µM, first compound 0.0949 µM) was 0.1%. For the same compound, the viability, T/C (second compound 1 µM, first compound 0.3 µM) was 0.05%, the viability, T/C (second compound 1 µM, first compound 0.949 µM) was 0.06% and the viability, T/C (second compound 1 µM, first compound 3 µM) was 0.72%. For the same compound, the viability, T/C (second compound 3.16 µM, first compound 0.00949 µM) was 0.06%, the viability, T/C (second compound 3.16 µM, first compound 0.03 µM) was 0.22% and the viability, T/C (second compound 3.16 µM, first compound 0.0949 µM) was 0.75%. The viability, T/C (second compound 3.16 µM, first compound 0.3 µM) was 0.08%, the viability, T/C (second compound 3.16 µM, first compound 0.949 µM) was 0.69% and the viability, T/C (second compound 3.16 µM, first compound 3 µM) was 0.12%. It also gave a viability, T/C (second compound 10 µM, first compound 0.00949 µM) of 0.87%, a viability, T/C (second compound 10 µM, first compound 0.03 µM) of 0.14% and a viability, T/C (second compound 10 µM, first compound 0.0949 µM) of 0.3%. The viability, T/C (second compound 10 µM, first compound 0.3 µM) was 0.13%, the viability, T/C (second compound 10 µM, first compound 0.949 µM) was 0.22% and the viability, T/C (second compound 10 µM, first compound 3 µM) was 0.56%.
